Measurements: patent publication US10633394B2, “Heterocyclic derivatives and use thereof” (C & C RESEARCH LABORATORIES, priority 2014, dated 2020)

Key:
Format in all cases: cell-based
NCI-N87 = assay: Cell growth inhibition assay (CellTiter-Glo), stomach cancer cell line NCI-N87; details: Homo sapiens; NCI-N87 cells, 96 hours
Method: (§1) The inhibitory effects of the compounds of the present invention against the growth of cancer cells were evaluated as shown below. The cancer cell lines including stomach cancer cell line (NCI-N87) and breast cancer cell line (MDA-MB-468) were cultured under the protocol provided by each supplier. Each type of cells to be used in experiments was sub-cultured in a 96-well plate by counting the exact number of cells using Tali™ Image-based Cytometer (Life Technologies). In a 96-well plate, NCI-N87 was employed with 5,000 cells/well; and MDA-MB-468 was employed with 10,000 cells/well. The cells were treated with the compounds listed in Examples which were diluted in various concentrations. Upon completion of the compounds treatment, NCI-N87 cells were cultured at 37° C. under 5% CO2 for 96 hours, and MDA-MB-468 cells were cultured at 37° C. in air for 96 hours. Subsequently, the cells were observed under microscope and drug precipitation and particular findings were investigated and recorded. And then, the 96-well plate was placed at room temperature for 30 minutes, added with 20 μL/well of CellTiter-Glo solution (Cat No. G7573, Promega) and shaken for 10 minutes, followed by being subjected to the measurement using PHERAstar™ microplate reader (BMG LABTECH) according to the supplier's general luminometer protocol. Wells where only culture liquid added without cell plating were used as a negative control, whereas wells where culture liquid containing 0.1% DMSO instead of the compounds listed in Examples were used as a positive control.

STAT3 = molecular target: T1, STAT3 (Homo sapiens, UniProt P40763); assay: STAT3 reporter gene (luciferase) assay in LNCaP stable cell line stimulated with IL-6; details: LNCaP stable cell line (pSTAT3-TA-luc), IL-6 10 ng/mL, 24 hours
T1 construct: plasmid pSTAT3-TA-luc), which contains a stably operating STAT3 promoter; endogenous in cells
T1 sequence (P40763 whole entry): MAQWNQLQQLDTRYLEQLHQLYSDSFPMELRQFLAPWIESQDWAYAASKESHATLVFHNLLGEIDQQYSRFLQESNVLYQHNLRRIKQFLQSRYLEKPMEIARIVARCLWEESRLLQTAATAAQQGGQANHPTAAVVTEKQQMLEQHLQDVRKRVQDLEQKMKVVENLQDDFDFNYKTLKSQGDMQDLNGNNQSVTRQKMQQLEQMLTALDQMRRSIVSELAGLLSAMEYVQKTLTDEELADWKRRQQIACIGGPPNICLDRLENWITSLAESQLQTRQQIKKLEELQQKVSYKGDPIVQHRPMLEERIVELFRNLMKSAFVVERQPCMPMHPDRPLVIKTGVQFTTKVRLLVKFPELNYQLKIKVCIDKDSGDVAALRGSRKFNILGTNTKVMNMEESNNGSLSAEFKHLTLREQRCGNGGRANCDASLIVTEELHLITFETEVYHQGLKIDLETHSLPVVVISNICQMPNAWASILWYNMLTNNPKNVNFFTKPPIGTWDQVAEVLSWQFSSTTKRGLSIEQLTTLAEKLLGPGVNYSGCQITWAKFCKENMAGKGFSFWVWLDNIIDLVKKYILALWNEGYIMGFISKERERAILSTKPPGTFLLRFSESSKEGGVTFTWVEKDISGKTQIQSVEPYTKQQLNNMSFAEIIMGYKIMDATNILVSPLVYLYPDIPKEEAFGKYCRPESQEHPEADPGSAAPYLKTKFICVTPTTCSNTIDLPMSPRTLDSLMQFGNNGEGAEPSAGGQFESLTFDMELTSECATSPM
Method: 1-1) Experiment on the Inhibition of STAT3 Activity
A human prostate cancer cell line (LNCaP stable cell line; plasmid pSTAT3-TA-luc), which contains a stably operating STAT3 promoter, was cultured in RPMI1640 medium (Cat No. 11875, Life Technologies) containing 10% fetal bovine serum (FBS) (Cat No. SH30396, Thermo Scientific) and 150 μg/mL G-418 solution (Cat No. 04 727 894 001, Roche). The reporter gene assay using LNCaP stable cell line was performed in RPMI1640 medium containing 3% DCC-FBS without G-418 solution. LNCaP stable cells were plated in two (2) white 96-well plates with 30,000 cells/50 μL in each well. The cells were cultured at 37° C., under 5% CO2 for 24 hours, and then treated with the compounds listed in Examples which were diluted in various concentrations. Subsequently, IL-6 was added to each well with a final concentration of 10 ng/mL. Upon completion of the treatment with the compounds and IL-6, the cells were cultured at 37° C., under 5% CO2 for 24 hours. The plates were observed under microscope and drug precipitation and particular findings were investigated and recorded.
The luciferase assay and the cell viability assay were performed respectively with one of the two plates. For the luciferase assay, the liquid media in the 96-well plate was removed, and then, 20 μL of passive cell lysis buffer was added to each well. After shaking the plate for 30 minutes, luciferase activities of each well were measured in a PHERAstar™ microplate reader (BMG LABTECH) using a luciferase assay system (Cat No. E1501, Promega). For the cell viability assay, the 96-well plate was placed at room temperature for 30 minutes, added with 20 μL/well of CellTiter-Glo solution (Cat No. G7573, Promega), and shaken for 10 minutes in order to measure cytotoxicity caused by the compounds listed in Examples with a PHERAstar™ microplate reader (BMG LABTECH). Wells without 0.1% DMSO and stimulation were used as a negative control and wells with 0.1% DMSO and stimulation were used as a positive control.
The results of evaluation on the inhibitory effect of the compounds listed in the Examples on the dimerization of STAT3 and STAT1 obtained via the STAT3 and STAT1 reporter gene assays are shown in Table 6 below.

MDA-MB-468 = assay: Cell growth inhibition assay (CellTiter-Glo), breast cancer cell line MDA-MB-468; details: Homo sapiens; MDA-MB-468 cells, 96 hours
Method: as §1

Which IC50 (NCI-N87) does the source give for `CS(=O)(=O)C1CCOc2cc3sc(C(=O)Nc4cc(Cl)nc(Oc5ccccc5OC(F)(F)F)c4)cc3cc21` (stereo not drawn) [Example 40, N-(2-chloro-6-(2-(trifluoromethoxy)phenoxy)pyridin-4-yl)-4-(methylsulfonyl)-3,4-dihydro-2H-thieno[3,2-g]chromene-7-carboxamide] here?
Its IC50 is 0.023 µM.

And the IC50 (STAT3)?
Its IC50 is 0.0087 µM.

And the IC50 (MDA-MB-468)?
The IC50 was 0.0086 µM.

With `Cc1cccc(Oc2cc(NC(=O)c3cc4cc5c(cc4s3)OCCC5S(C)(=O)=O)cc(Cl)n2)c1F` (stereo not drawn) [Example 41, N-(2-chloro-6-(2-fluoro-3-methylphenoxy)pyridin-4-yl)-4-(methylsulfonyl)-3,4-dihydro-2H-thieno[3,2-g]chromene-7-carboxamide] as the compound, how does the IC50 (NCI-N87) read?
The IC50 was 0.021 µM.

And the IC50 (STAT3)?
Its IC50 is 0.011 µM.

And the IC50 (MDA-MB-468)?
Its IC50 is 0.012 µM.

Which IC50 (NCI-N87) does the source give for `COc1cc(Cl)ccc1Oc1cc(NC(=O)c2cc3cc4c(cc3s2)OCCC4S(C)(=O)=O)cc(Cl)n1` (stereo not drawn) [Example 42, N-(2-chloro-6-(4-chloro-2-methoxyphenoxy)pyridin-4-yl)-4-(methylsulfonyl)-3,4-dihydro-2H-thieno[3,2-g]chromene-7-carboxamide] here?
The IC50 was 0.024 µM.

What about the IC50 (STAT3) of the same compound?
Its IC50 is 0.023 µM.

What about the IC50 (MDA-MB-468) of the same compound?
Its IC50 is 0.0078 µM.

How did the IC50 (NCI-N87) turn out when `CS(=O)(=O)[C@H]1CCOc2cc3sc(C(=O)Nc4cc(Cl)nc(Oc5ccc(Cl)cc5)c4)cc3cc21` [Example 43, (S)—N-(2-chloro-6-(4-chlorophenoxy)pyridin-4-yl)-4-(methylsulfonyl)-3,4-dihydro-2H-thieno[3,2-g]chromene-7-carboxamide] was run?
The IC50 was 0.015 µM.

And the IC50 (STAT3)?
The IC50 was 0.018 µM.

What about the IC50 (MDA-MB-468) of the same compound?
Its IC50 is 0.0029 µM.

How did the IC50 (NCI-N87) turn out when `CS(=O)(=O)[C@@H]1CCOc2cc3sc(C(=O)Nc4cc(Cl)nc(Oc5ccc(Cl)cc5)c4)cc3cc21` [Example 44, (R)—N-(2-chloro-6-(4-chlorophenoxy)pyridin-4-yl)-4-(methylsulfonyl)-3,4-dihydro-2H-thieno[3,2-g]chromene-7-carboxamide] was run?
Its IC50 is 1.8 µM.

What about the IC50 (STAT3) of the same compound?
The IC50 was 1.5 µM.

What about the IC50 (MDA-MB-468) of the same compound?
Its IC50 is 0.086 µM.

What does the source list for `CS(=O)(=O)[C@@]1(F)CCOc2cc3sc(C(=O)Nc4cc(Cl)nc(Oc5ccc(Cl)cc5)c4)cc3cc21` [Example 45, (S)—N-(2-chloro-6-(4-chlorophenoxy)pyridin-4-yl)-4-fluoro-4-(methylsulfonyl)-3,4-dihydro-2H-thieno[3,2-g]chromene-7-carboxamide]?
IC50 (NCI-N87): 0.0056 µM; IC50 (STAT3): 0.0039 µM; IC50 (MDA-MB-468): 0.0025 µM

`CS(=O)(=O)[C@]1(F)CCOc2cc3sc(C(=O)Nc4cc(Cl)nc(Oc5ccc(Cl)cc5)c4)cc3cc21` [Example 46, (R)—N-(2-chloro-6-(4-chlorophenoxy)pyridin-4-yl)-4-fluoro-4-(methylsulfonyl)-3,4-dihydro-2H-thieno[3,2-g]chromene-7-carboxamide] was tested. Which IC50 (NCI-N87) did it give?
Its IC50 is 0.56 µM.

What about the IC50 (STAT3) of the same compound?
The IC50 was 0.14 µM.

What about the IC50 (MDA-MB-468) of the same compound?
The IC50 was greater than 0.1 µM.

How did the IC50 (NCI-N87) turn out when `C[C@]1(S(C)(=O)=O)CCOc2cc3sc(C(=O)Nc4cc(Cl)nc(Oc5ccc(Cl)cc5)c4)cc3cc21` [Example 47, (S)—N-(2-chloro-6-(4-chlorophenoxy)pyridin-4-yl)-4-methyl-4-(methylsulfonyl)-3,4-dihydro-2H-thieno[3,2-g]chromene-7-carboxamide] was run?
Its IC50 is 0.0064 µM.

And the IC50 (STAT3)?
Its IC50 is 0.0045 µM.

And the IC50 (MDA-MB-468)?
Its IC50 is 0.0017 µM.

For `C[C@@]1(S(C)(=O)=O)CCOc2cc3sc(C(=O)Nc4cc(Cl)nc(Oc5ccc(Cl)cc5)c4)cc3cc21` [Example 48, (R)—N-(2-chloro-6-(4-chlorophenoxy)pyridin-4-yl)-4-methyl-4-(methylsulfonyl)-3,4-dihydro-2H-thieno[3,2-g]chromene-7-carboxamide], which IC50 (NCI-N87) is on record?
The IC50 was 0.79 µM.

What about the IC50 (STAT3) of the same compound?
Its IC50 is 0.15 µM.

What about the IC50 (MDA-MB-468) of the same compound?
The IC50 was greater than 0.1 µM.

`COc1cc(Cl)cc(Oc2cc(NC(=O)c3cc4cc5c(cc4s3)OCC[C@@H]5S(C)(=O)=O)cc(Cl)n2)c1` [Example 49, (S)—N-(2-chloro-6-(3-chloro-5-methoxyphenoxy)pyridin-4-yl)-4-(methylsulfonyl)-3,4-dihydro-2H-thieno[3,2-g]chromene-7-carboxamide] was tested. Which IC50 (NCI-N87) did it give?
The IC50 was 0.018 µM.

What about the IC50 (STAT3) of the same compound?
Its IC50 is 0.0066 µM.

And the IC50 (MDA-MB-468)?
The IC50 was 0.0059 µM.

For `CS(=O)(=O)C1CCC(=O)c2cc3sc(C(=O)Nc4cc(Cl)nc(Oc5ccc(Cl)cc5)c4)cc3cc21` (stereo not drawn) [Example 51, N-(2-chloro-6-(4-chlorophenoxy)pyridin-4-yl)-5-(methylsulfonyl)-8-oxo-5,6,7,8-tetrahydronaphtho[2,3-b]thiophene-2-carboxamide], which IC50 (NCI-N87) is on record?
The IC50 was 0.2 µM.

And the IC50 (STAT3)?
Its IC50 is 0.1 µM.

And the IC50 (MDA-MB-468)?
Its IC50 is 0.05 µM.

`O=C(Nc1cc(Cl)nc(Oc2ccc(Cl)cc2)c1)c1cc2cc3c(cc2s1)OCCC3n1cccn1` (stereo not drawn) [Example 52, N-(2-chloro-6-(4-chlorophenoxy)pyridin-4-yl)-4-(1H-pyrazol-1-yl)-3,4-dihydro-2H-thieno[3,2-g]chromene-7-carboxamide] was tested. Which IC50 (NCI-N87) did it give?
Its IC50 is 0.4 µM.

What about the IC50 (STAT3) of the same compound?
The IC50 was 0.1 µM.

And the IC50 (MDA-MB-468)?
The IC50 was 0.12 µM.

`O=C(Nc1cc(Cl)nc(Oc2ccc(Cl)cc2)c1)c1cc2cc3c(cc2s1)OCCC3N1CCCC1=O` (stereo not drawn) [Example 53, N-(2-chloro-6-(4-chlorophenoxy)pyridin-4-yl)-4-(2-oxopyrrolidin-1-yl)-3,4-dihydro-2H-thieno[3,2-g]chromene-7-carboxamide] was tested. Which IC50 (NCI-N87) did it give?
Its IC50 is 4.4 µM.

What about the IC50 (STAT3) of the same compound?
Its IC50 is 5.2 µM.

And the IC50 (MDA-MB-468)?
Its IC50 is 0.71 µM.

What does the source list for `N#CC1CCOc2cc3sc(C(=O)Nc4cc(Cl)nc(Oc5ccc(Cl)cc5)c4)cc3cc21` (stereo not drawn) [Example 54, N-(2-chloro-6-(4-chlorophenoxy)pyridin-4-yl)-4-cyano-3,4-dihydro-2H-thieno[3,2-g]chromene-7-carboxamide]?
IC50 (NCI-N87): 0.32 µM; IC50 (STAT3): 0.18 µM; IC50 (MDA-MB-468): 0.075 µM

`[N-]=[N+]=NC1CCOc2cc3sc(C(=O)Nc4cc(Cl)nc(Oc5ccc(Cl)cc5)c4)cc3cc21` (stereo not drawn) [Example 55, 4-azido-N-(2-chloro-6-(4-chlorophenoxy)pyridin-4-yl)-3,4-dihydro-2H-thieno[3,2-g]chromene-7-carboxamide] was tested. Which IC50 (NCI-N87) did it give?
Its IC50 is 1.2 µM.

What about the IC50 (STAT3) of the same compound?
Its IC50 is 0.039 µM.

And the IC50 (MDA-MB-468)?
The IC50 was 0.078 µM.
